Measurements reported in US4162938A, “Antibiotic compound” (Bristol-Myers Company, priority 1978, dated 1979).
In brackets after ≈: the same amount, converted by molar mass. Where two headings read alike, the source gives them in different places.

Key:
[1] = test system: Staphylococcus aureus A-9537; assay: MIC, standard tube dilution procedure; type: cell-based
Experimental: (§1) The in vitro minimum inhibitory concentrations (MIC) of rudolphomycin were determined for a number of microorganisms using the standard tube dilution procedure.

[2] = test system: Enterobacter cloacae A-9659; assay: MIC, standard tube dilution procedure; type: cell-based
Experimental: as §1

[3] = test system: Proteus vulgaris A-9716; assay: MIC, standard tube dilution procedure; type: cell-based
Experimental: as §1

[4] = test system: Proteus mirabilis A-9900; assay: MIC, standard tube dilution procedure; type: cell-based
Experimental: as §1

[5] = test system: Escherichia coli A-15119; assay: MIC, standard tube dilution procedure; type: cell-based
Experimental: as §1

[6] = test system: Staphylococcus aureus A-9606; assay: MIC, standard tube dilution procedure; type: cell-based
Experimental: as §1

[7] = test system: Streptococcus faecalis A-20688; assay: MIC, standard tube dilution procedure; type: cell-based
Experimental: as §1

[8] = test system: Klebsiella pneumoniae A-15130; assay: MIC, standard tube dilution procedure; type: cell-based
Experimental: as §1

[9] = test system: Trichophyton mentagrophytes A-9870; assay: MIC, standard tube dilution procedure; type: cell-based
Experimental: as §1

[10] = test system: Escherichia coli A-20341-1; assay: MIC, standard tube dilution procedure; type: cell-based
Experimental: as §1

[11] = test system: Serratia marcescens A-20019; assay: MIC, standard tube dilution procedure; type: cell-based
Experimental: as §1

[12] = test system: Candida albicans A-9540; assay: MIC, standard tube dilution procedure; type: cell-based
Experimental: as §1

[13] = test system: Streptococcus pyogenes A-9604; assay: MIC, standard tube dilution procedure; type: cell-based
Experimental: as §1

[14] = test system: Pseudomonas aeruginosa A-9843A; assay: MIC, standard tube dilution procedure; type: cell-based
Experimental: as §1

[15] = test system: Candida krusei A-15052; assay: MIC, standard tube dilution procedure; type: cell-based
Experimental: as §1

[16] = test system: Cryptococcus neoformans A-15053; assay: MIC, standard tube dilution procedure; type: cell-based
Experimental: as §1

[17] = test system: Candida tropicalis A-15051; assay: MIC, standard tube dilution procedure; type: cell-based
Experimental: as §1

[18] = test system: Streptococcus pneumoniae A-9585; assay: MIC, standard tube dilution procedure; type: cell-based
Experimental: as §1

[19] = test system: Microsporum canis A-9872; assay: MIC, standard tube dilution procedure; type: cell-based
Experimental: as §1

[20] = test system: L-1210 leukemia; type: in vivo, mouse (BDF1 female)
Experimental: The compound of the present invention was also tested against the transplantable mouse tumor L-1210 lymphatic leukemia which is responsive to anthracycline-type antitumor agents.
Tumor inoculum: 10^6 ascites cells implanted i.p.
Host: BDF1 .female. mice
Evaluation: MST = median survival time
Effect: % T/C = MST treated/MST control × 100
Criteria: T/C ≥ 125 considered significant antitumor effect.

[21] = test system: L1210 mouse leukemia; assay: Activity of chromatographic bands on L1210 mouse leukemia system; type: in vivo; details: Example 4 bands
[22] = Biological activity of chromatographic fractions of bohemic acid complex (test not specified); details: Example 5, large scale LH-20
[23] = test system: P388 mouse leukemia; assay: Activity of chromatographic bands on P388 mouse leukemia system; type: in vivo; details: Example 4 bands
[24] = day 1 (1 inj.), 0.4 mg./kg./inj.
[25] = day 1 (1 inj.), 0.8 mg./kg./inj.
[26] = day 1 (1 inj.), 1.6 mg./kg./inj.
[27] = day 1 (1 inj.), 3.2 mg./kg./inj.
[28] = day 1 (1 inj.), 6.4 mg./kg./inj.
[29] = day 1 (1 inj.), 12.8 mg./kg./inj.
[30] = days 1, 4, 7 (3 inj.), 0.2 mg./kg./inj.
[31] = days 1, 4, 7 (3 inj.), 0.4 mg./kg./inj.
[32] = days 1, 4, 7 (3 inj.), 0.8 mg./kg./inj.
[33] = days 1, 4, 7 (3 inj.), 1.6 mg./kg./inj.
[34] = days 1, 4, 7 (3 inj.), 3.2 mg./kg./inj.
[35] = days 1, 4, 7 (3 inj.), 6.4 mg./kg./inj.
[36] = days 1→5 (5 inj.), 0.1 mg./kg./inj.
[37] = days 1→5 (5 inj.), 0.2 mg./kg./inj.
[38] = days 1→5 (5 inj.), 0.4 mg./kg./inj.
[39] = days 1→5 (5 inj.), 0.8 mg./kg./inj.
[40] = days 1→5 (5 inj.), 1.6 mg./kg./inj.
[41] = days 1→5 (5 inj.), 3.2 mg./kg./inj.
[42] = days 1→9 (9 inj.), 0.05 mg./kg./inj.
[43] = days 1→9 (9 inj.), 0.1 mg./kg./inj.
[44] = days 1→9 (9 inj.), 0.2 mg./kg./inj.
[45] = days 1→9 (9 inj.), 0.4 mg./kg./inj.
[46] = days 1→9 (9 inj.), 0.8 mg./kg./inj.
[47] = days 1→9 (9 inj.), 1.6 mg./kg./inj.

CC[C@@]1(O)C[C@H](O[C@H]2C[C@H](N(C)C)[C@H](O[C@H]3C[C@H](O)[C@H](O[C@@H]4O[C@@H](C)C(=O)C=C4N)[C@@H](C)O3)[C@@H](C)O2)c2c(cc3c(c2O)C(=O)c2c(O)ccc(O)c2C3=O)[C@H]1C(=O)OC [Rudolphomycin]
MIC [1]: 2 µg/mL (≈ 2.38 µM) | MIC [2]: > 63 µg/mL | MIC [3]: > 63 µg/mL | MIC [4]: > 63 µg/mL | MIC [5]: > 63 µg/mL | MIC [6]: 8 µg/mL (≈ 9.51 µM) | MIC [7]: 4 µg/mL (≈ 4.76 µM) | MIC [8]: > 63 µg/mL | MIC [9]: > 125 µg/mL | MIC [10]: > 63 µg/mL | MIC [11]: > 63 µg/mL | MIC [12]: > 125 µg/mL | MIC [13]: 0.5 µg/mL (≈ 0.595 µM) | MIC [14]: > 63 µg/mL | MIC [15]: > 125 µg/mL | MIC [16]: 63 µg/mL (≈ 74.9 µM) | MIC [17]: > 125 µg/mL | MIC [18]: 0.25 µg/mL (≈ 0.297 µM) | MIC [19]: > 125 µg/mL | MST % T/C [20, 24]: 114% | MST (median survival time) [20, 24]: 8.0 days | MST % T/C [20, 25]: 114% | MST (median survival time) [20, 25]: 8.0 days | MST % T/C [20, 26]: 114% | MST (median survival time) [20, 26]: 8.0 days | MST % T/C [20, 27]: 143% | MST (median survival time) [20, 27]: 10.0 days | MST % T/C [20, 28]: 143% | MST (median survival time) [20, 28]: 10.0 days | MST % T/C [20, 29]: 143% | MST (median survival time) [20, 29]: 10.0 days | MST % T/C [20, 30]: 114% | MST (median survival time) [20, 30]: 8.0 days | MST % T/C [20, 31]: 114% | MST (median survival time) [20, 31]: 8.0 days | MST % T/C [20, 32]: 136% | MST (median survival time) [20, 32]: 9.5 days | MST % T/C [20, 33]: 143% | MST (median survival time) [20, 33]: 10.0 days | MST % T/C [20, 34]: 100% | MST (median survival time) [20, 34]: 7.0 days | MST % T/C [20, 35]: 129% | MST (median survival time) [20, 35]: 9.0 days | MST % T/C [20, 36]: 114% | MST (median survival time) [20, 36]: 8.0 days | MST % T/C [20, 37]: 129% | MST (median survival time) [20, 37]: 9.0 days | MST % T/C [20, 38]: 129% | MST (median survival time) [20, 38]: 9.0 days | MST % T/C [20, 39]: 143% | MST (median survival time) [20, 39]: 10.0 days | MST % T/C [20, 40]: 129% | MST (median survival time) [20, 40]: 9.0 days | MST % T/C [20, 41]: 129% | MST (median survival time) [20, 41]: 9.0 days | MST % T/C [20, 42]: 114% | MST (median survival time) [20, 42]: 8.0 days | MST % T/C [20, 43]: 107% | MST (median survival time) [20, 43]: 7.5 days | MST % T/C [20, 44]: 129% | MST (median survival time) [20, 44]: 9.0 days | MST % T/C [20, 45]: 129% | MST (median survival time) [20, 45]: 9.0 days | MST % T/C [20, 46]: 129% | MST (median survival time) [20, 46]: 9.0 days | MST % T/C [20, 47]: 107% | MST (median survival time) [20, 47]: 7.5 days

CC[C@@]1(O)C[C@H](O[C@H]2C[C@H](N(C)C)[C@H](O[C@H]3C[C@H](O)[C@H](O)[C@H](C)O3)[C@H](C)O2)c2c(cc3c(c2O)C(=O)c2c(O)ccc(O)c2C3=O)[C@H]1C(=O)OC [musettamycin]
activity on L1210 mouse leukemia [21]: highly active | activity of chromatographic fraction [22]: active | activity on P388 mouse leukemia [23]: highly active
